Results as given in US10723695B2, “Microbiocidal phenylamidine derivatives” (SYNGENTA PARTICIPATIONS AG, priority 2015, dated 2020).

Legend:
[1] = system: Blumeria graminis f. sp. tritici (Erysiphe graminis f. sp. tritici); assay: Blumeria graminis f. sp. tritici / wheat / leaf disc preventative (powdery mildew on wheat); type: in vivo; settings: foliar, wheat leaf segments cv. Kanzler, compared to untreated control leaf disks, read-out: disease control
Description: Blumeria graminis f. sp. tritici (Erysiphe graminis f. sp. tritici)/Wheat/Leaf Disc Preventative (Powdery Mildew on Wheat) Wheat leaf segments cv. Kanzler were placed on agar in a multiwell plate (24-well format) and sprayed with the formulated test compound diluted in water. The leaf disks were inoculated by shaking powdery mildew infected plants above the test plates 1 day after application.

[2] = system: Puccinia recondita f. sp. tritici; assay: Puccinia recondita f. sp. tritici / wheat / leaf disc curative (brown rust); type: in vivo; settings: foliar, 24 h, wheat leaf segments cv. Kanzler, curative (applied 1 day after inoculation), compared to untreated control leaf disks, read-out: disease control
Description: Puccinia recondita f. sp. tritici/Wheat/Leaf Disc Curative (Brown Rust) Wheat leaf segments cv. Kanzler are placed on agar in multiwell plates (24-well format). The leaf segments are inoculated with a spore suspension of the fungus. Plates were stored in darkness at 19° C. and 75% rh. The formulated test compound diluted in water was applied 1 day after inoculation.

Phakopsora pachyrhizi = Phakopsora pachyrhizi / soybean / leaf disk preventative (soybean rust); type: in vivo; settings: foliar, soybean leaf disks, compared to untreated control leaf disks, read-out: disease control
Description: Phakopsora pachyrhizi/Soybean/Leaf Disk Preventative (Soybean Rust) Four-week old soybean plants are sprayed in a spray chamber with the formulated test compound diluted in water. Leaf disks are cut from treated plants and placed on agar into 24-well plates one day after application. Leaf disks are inoculated by spraying them with a spore suspension on their lower leaf surface. After an incubation period in a climate cabinet of 24-36 hours in darkness at 20° C. and 75% rh, the leaf disks are then kept at 20° C. with 12 h light/day and 75% rh. The percentage leaf disk area covered by disease is assessed when an appropriate level of disease appears on untreated check plants (12-14 days after application).

[3] = system: Puccinia recondita f. sp. tritici; assay: Puccinia recondita f. sp. tritici / wheat / leaf disc preventative (brown rust); type: in vivo; settings: foliar, wheat leaf segments cv. Kanzler, compared to untreated control leaf disks, read-out: disease control
Description: Puccinia recondita f. sp. tritici/Wheat/Leaf Disc Preventative (Brown Rust) Wheat leaf segments cv. Kanzler were placed on agar in multiwell plates (24-well format) and sprayed with the formulated test compound diluted in water. The leaf disks were inoculated with a spore suspension of the fungus 1 day after application. The inoculated leaf segments were incubated at 19° C. and 75% rh under a light regime of 12 h light/12 h darkness in a climate cabinet and the activity of a compound was assessed as percent disease control compared to untreated when an appropriate level of disease damage appears in untreated check leaf segments (7-9 days after application).

Row | SMILES | pest or weed control at 200 ppm [1] | pest or weed control at 200 ppm [2] | melting point | pest or weed control at 200 ppm (Phakopsora pachyrhizi) | pest or weed control at 200 ppm [3]
1 | CCOC(=O)c1ccc(C(O)(c2cc(C)c(/N=C/N(C)CC)cc2OC)C(F)(F)F)cc1 (centres unmarked) [Compound E1.039] | ≥ 80% | ≥ 80% | 118 to 120 °C | – | –
2 | CCN(C)/C=N/c1cc(OC)c(C(O)(C#CC2CCCCC2)C(F)(F)F)cc1C (centres unmarked) [Compound E1.085] | – | ≥ 80% | 62 to 64 °C | – | –
3 | CCN(C)/C=N/c1cc(OC)c(C(O)(Cc2ccccc2)C(F)(F)F)cc1C (centres unmarked) [Compound E1.086] | ≥ 80% | ≥ 80% | – | ≥ 80% | ≥ 80%
4 | CCN(C)/C=N/c1cc(OC)c(C(O)(Cc2ccc(C)cc2)C(F)(F)F)cc1C (centres unmarked) [Compound E1.087] | ≥ 80% | ≥ 80% | – | ≥ 80% | ≥ 80%
5 | CCN(C)/C=N/c1cc(OC)c(C(O)(Cn2ncc3ccccc32)C(F)(F)F)cc1C (centres unmarked) [Compound E1.093] | ≥ 80% | ≥ 80% | – | ≥ 80% | ≥ 80%
6 | CCN(C)/C=N/c1cc(OC)c(C(O)(Cn2nc(C)c(C)c2C)C(F)(F)F)cc1C (centres unmarked) [Compound E1.095] | ≥ 80% | ≥ 80% | – | ≥ 80% | ≥ 80%
7 | CCN(C)/C=N/c1cc(OC)c(C(O)(Cc2ccnc(F)c2)C(F)(F)F)cc1C (centres unmarked) [Compound E1.101] | ≥ 80% | ≥ 80% | – | ≥ 80% | ≥ 80%
8 | CCN(C)/C=N/c1cc(OC)c(C(O)(c2cc3ccccc3s2)C(F)(F)F)cc1C (centres unmarked) [Compound E1.103] | ≥ 80% | ≥ 80% | – | ≥ 80% | ≥ 80%
9 | CCN(C)/C=N/c1cc(OC)c(C(O)(c2ccc(C)s2)C(F)(F)F)cc1C (centres unmarked) [Compound E1.104] | ≥ 80% | ≥ 80% | – | ≥ 80% | ≥ 80%
10 | CCN(C)/C=N/c1cc(OC)c(C(O)(c2cccs2)C(F)(F)F)cc1C (centres unmarked) [Compound E1.105] | ≥ 80% | ≥ 80% | – | ≥ 80% | ≥ 80%
11 | CCN(C)/C=N/c1cc(OC)c(C(O)(c2cccc(Cl)n2)C(F)(F)F)cc1C (centres unmarked) [Compound E1.106] | ≥ 80% | ≥ 80% | – | ≥ 80% | ≥ 80%
12 | CCN(C)/C=N/c1cc(OC)c(C(O)(c2cccnc2OC)C(F)(F)F)cc1C (centres unmarked) [Compound E1.112] | ≥ 80% | ≥ 80% | – | ≥ 80% | ≥ 80%
13 | CCN(C)/C=N/c1cc(OC(C)C)c(C(O)(c2ccccc2)C(F)(F)F)cc1C (centres unmarked) [Compound E1.115] | – | – | 119 to 120 °C | – | –
14 | CCCCC(O)(c1cc(Cl)c(/N=C/N(C)CC)cc1OC)C(F)(F)F (centres unmarked) [Compound E1.117] | ≥ 80% | ≥ 80% | – | ≥ 80% | ≥ 80%
15 | CCN(C)/C=N/c1cc(OC)c(C(O)C(F)(F)Cl)cc1C (centres unmarked) [Compound E1.118] | ≥ 80% | ≥ 80% | – | ≥ 80% | ≥ 80%
16 | CCN(C)/C=N/c1cc(OC)c(C(O)(C(C)C)C(F)(F)Cl)cc1C (centres unmarked) [Compound E1.119] | ≥ 80% | ≥ 80% | – | ≥ 80% | ≥ 80%
17 | CCN(C)/C=N/c1cc(OC)c(C(O)(C2CC2)C(F)(F)Cl)cc1C (centres unmarked) [Compound E1.120] | ≥ 80% | ≥ 80% | – | ≥ 80% | ≥ 80%
18 | C=CCC(O)(c1cc(C)c(/N=C/N(C)CC)cc1OC)C(F)(F)Cl (centres unmarked) [Compound E1.121] | ≥ 80% | ≥ 80% | – | ≥ 80% | ≥ 80%
19 | CCN(C)/C=N/c1cc(OC)c(C(O)(c2ccccc2)C(F)(F)Cl)cc1C (centres unmarked) [Compound E1.122] | ≥ 80% | ≥ 80% | – | ≥ 80% | ≥ 80%
20 | CCN(C)/C=N/c1cc(OC)c(C(O)c2ccccc2)cc1C (centres unmarked) [Compound E1.123] | ≥ 80% | ≥ 80% | – | ≥ 80% | ≥ 80%
21 | COc1cc(/N=C/N(C)C(C)C)c(C)cc1C(O)(c1ccc(F)c(F)c1)C(F)(F)F (centres unmarked) [Compound E1.127] | – | – | 116 to 118 °C | – | –
22 | CCN(C)/C=N/c1cc(OC)c(C(O)(c2ccc(F)c(F)c2)C(F)(F)F)cc1C (centres unmarked) [Compound E1.128] | – | – | 108 to 110 °C | – | –
23 | COc1cc(/N=C/N(C)C(C)C)c(C)cc1C(O)(c1cccc(F)c1C)C(F)(F)F (centres unmarked) [Compound E1.131] | – | – | 127 to 129 °C | – | –
